Values quoted from earlier work, collected in PMC8391575, “Identification of Novel Cathepsin B Inhibitors with Implications in Alzheimer’s Disease: Computational Refining and Biochemical Evaluation” (Cells, 2021).
Where two headings read alike, the source gives them in different places. Where a SMILES comes first, the peptide text is derived from it.

Tested on: cathepsin B
Conditions: cited from earlier work
[1] = class of the experimental IC50, read-out: Activity Scale Experimental
[2] = Table S1, read-out: IC50: half maximal inhibitory concentration
[3] = Figure 1, previously reported inhibitors of cathepsin B, read-out: IC50
[4] = read-out: Activity Scale Experimental

Row | SMILES | pIC50 Experimental (Table 4) | IC50 [1] [nM] | IC50 [2] [nM] | IC50 [3] [nM] | pIC50 Experimental | IC50 [4] [nM]
1 | CC(=O)NC(CC(C)C)C(=O)NC(C(=O)NC(C=O)CCCCN)C(C)C (stereo not drawn) [Compound S3, 2-acetamido-N-[1-[(6-amino-1-oxohexan-2-yl)amino]-3-methyl-1-oxobutan-2-yl]-4-methylpentanamide] (Ac-Leu-Val-Lys-aldehyde; configuration not given here) | 8.4 | < 300 |  |  |  | 
2 | CCOC(=O)C(C(=O)OCC)N(C#N)c1nc(SC)nc(N(C)C)n1 [Compound S19, diethyl 2-[cyano-[4-(dimethylamino)-6-methylsulfanyl-1,3,5-triazin-2-yl]amino]propanedioate] | 4.71 | > 2500 |  |  |  | 
3 | CC(C)C[C@H](NC(=O)[C@@H](NC(=O)N[C@@H](Cc1ccccc1)C(=O)O)C1CCN=C(N)N1)C(=O)N[C@H](C=O)Cc1ccccc1 (stereo partly drawn) [Compound N9, (2S)-2-[[(1S)-1-(2-amino-1,4,5,6-tetrahydropyrimidin-6-yl)-2-[[(2S)-4-methyl-1-oxo-1-[[(2S)-1-oxo-3-phenylpropan-2-yl]amino]pentan-2-yl]amino]-2-oxoethyl]carbamoylamino]-3-phenylpropanoic acid] | 5.59 | > 2500 | 2600 |  |  | 
4 | COc1ccc(-c2cc(=O)c3c(O)cc(O)c(-c4cc(-c5cc(=O)c6c(O)cc(OC)cc6o5)ccc4OC)c3o2)cc1 [Compound N4, 5,7-dihydroxy-8-[5-(5-hydroxy-7-methoxy-4-oxochromen-2-yl)-2-methoxyphenyl]-2-(4-methoxyphenyl)chromen-4-one] | 6.21 | 300 to 2500 | 620 |  |  | 
5 | COc1ccc(C(=O)C(OC(=O)CNC(=O)c2ccco2)c2ccccc2)cc1 (stereo not drawn) [Compound S36, [2-(4-methoxyphenyl)-2-oxo-1-phenylethyl] 2-(furan-2-carbonylamino)acetate] | 4.74 | > 2500 |  |  |  | 
6 | O=c1cc(-c2ccc(O)c(-c3c(O)cc(O)c4c(=O)cc(-c5ccc(O)cc5)oc34)c2)oc2cc(O)cc(O)c12 [Compound N3, 8-[5-(5,7-dihydroxy-4-oxochromen-2-yl)-2-hydroxyphenyl]-5,7-dihydroxy-2-(4-hydroxyphenyl)chromen-4-one] | 5.76 | 300 to 2500 | 1750 | 1170 |  | 
7 | O=C(CNC(=O)c1ccco1)OCN1C(=O)c2ccccc2C1=O [Compound S35, (1,3-dioxoisoindol-2-yl)methyl 2-(furan-2-carbonylamino)acetate] | 5.07 | > 2500 |  |  |  | 
8 | Nc1cc(OC(=O)c2ccco2)nn1S(=O)(=O)c1ccc(F)cc1 [Compound S10, [5-amino-1-(4-fluorophenyl)sulfonylpyrazol-3-yl] furan-2-carboxylate] | 5.9 | 300 to 2500 |  |  |  | 
9 | O=C(CSc1nnc(-c2ccco2)c(-c2ccco2)n1)Nc1ccccc1 [Compound S37, 2-[[5,6-bis(furan-2-yl)-1,2,4-triazin-3-yl]sulfanyl]-N-phenylacetamide] | 5.65 | 300 to 2500 |  |  |  | 
10 | Nc1cc(OC(=O)c2cccs2)nn1S(=O)(=O)c1ccccc1 [Compound S34, [5-amino-1-(benzenesulfonyl)pyrazol-3-yl] thiophene-2-carboxylate] | 6.61 | < 300 |  |  |  | 
11 | CC(C)C[C@H](NC(=O)[C@H]1O[C@@H]1C(=O)O)C(=O)NCCCCN=C(N)N [Compound N13, (2S,3S)-3-[[(2S)-1-[4-(diaminomethylideneamino)butylamino]-4-methyl-1-oxopentan-2-yl]carbamoyl]oxirane-2-carboxylic acid] | 8.28 | < 300 |  |  |  | 
12 | COc1ccc(-c2cc(=O)c3c(O)cc(O)cc3o2)cc1-c1c(O)cc(O)c2c(=O)cc(-c3ccc(O)cc3)oc12 [AMF5, 4’-methylamentoflavone] |  |  |  | 810 |  | 
13 | Cn1ncnc2c(=O)n(C)c(=O)nc1-2 [Compound N22, 1,6-dimethylpyrimido[5,4-e][1,2,4]triazine-5,7-dione] | 7.34 | < 300 |  |  |  | 
14 | O=C1C[C@@H](c2ccc(O)c(-c3c(O)cc(O)c4c(=O)cc(-c5ccc(O)cc5)oc34)c2)Oc2cc(O)cc(O)c21 [AMF4, 2,3-dihydroamentoflavone] |  |  |  | 620 |  | 
15 | CC(NC(=O)C(Cc1ccccc1)NC(=O)OCc1ccccc1)C([O-])=C[N+]#N (stereo not drawn) [Compound S4, 1-diazonio-3-[[3-phenyl-2-(phenylmethoxycarbonylamino)propanoyl]amino]but-1-en-2-olate] | 8.03 | < 300 |  |  |  | 
16 | COc1ccc(-c2cc(=O)c3c(O)cc(O)c(-c4cc(-c5cc(=O)c6c(O)cc(O)cc6o5)ccc4O)c3o2)cc1 [AMF2, 4’’’-methylamentoflavone] |  |  |  | 1030 |  | 
17 | NC(N)=NCCCCNC(=O)C(Cc1ccccc1)NC(=O)C1OC1C(=O)O (stereo not drawn) [Compound N15, 3-[[1-[4-(diaminomethylideneamino)butylamino]-1-oxo-3-phenylpropan-2-yl]carbamoyl]oxirane-2-carboxylic acid] | 6.57 | < 300 | 270 |  |  | 

Row | SMILES | pIC50 Experimental (Table 4) | IC50 [1] [nM] | IC50 [2] [nM] | IC50 [3] [nM] | pIC50 Experimental | IC50 [4] [nM]
19 | CCn1nc(-c2cccs2)nc2c(=O)n(C)c(=O)nc1-2 [Compound S13, 1-Ethyl-6-methyl-3-thiophen-2-yl-1H-pyrimido[5,4-e][1,2,4]triazine-5,7-dione] | 7.14 | < 300 |  |  |  | 
20 | CC(=O)N[C@@H](CC(C)C)C(=O)N[C@@H](CC(C)C)C(=O)N[C@H](C=O)CCCN=C(N)N [Compound N19, 2-acetamido-N-[1-[[5-(diaminomethylideneamino)-1-oxopentan-2-yl]amino]-4-methyl-1-oxopentan-2-yl]-4-methylpentanamide; 2,2,2-trifluoroacetic acid] | 6.36 | 300 to 2500 | 440 |  |  | 
21 | COc1cc(O)c2c(=O)cc(-c3ccc(O)c(-c4c(O)cc(O)c5c(=O)cc(-c6ccc(O)cc6)oc45)c3)oc2c1 [Compound N21, 5,7-dihydroxy-8-[2-hydroxy-5-(5-hydroxy-7-methoxy-4-oxochromen-2-yl)phenyl]-2-(4-hydroxyphenyl)chromen-4-one] | 5.77 | 300 to 2500 | 1680 |  |  | 
22 | COc1ccc(S(=O)(=O)n2nc(OC(=O)c3ccco3)cc2N)cc1 [Compound S15] | 6.03 | 300 to 2500 |  |  |  | 
23 | Cc1ccc(S(=O)(=O)n2nc(OC(=O)c3ccco3)cc2N)cc1 [Compound S12, [5-amino-1-(4-methylphenyl)sulfonylpyrazol-3-yl] furan-2-carboxylate] | 5.76 | 300 to 2500 | 1750 |  |  | 
24 | CCC(=O)Oc1oc(-c2ccccc2)nc1/C=N/c1ccccc1OC [Compound S21, [4-[(2-methoxyphenyl)iminomethyl]-2-phenyl-1,3-oxazol-5-yl] propanoate] | 4.39 | > 2500 |  |  |  | 
25 | NCCCCNC(=O)[C@H](Cc1ccccc1)NC(=O)[C@H]1O[C@@H]1C(=O)O [Compound N6, (2S,3S)-3-({(2S)-1-[(4-Aminobutyl)amino]-1-oxo-3-phenyl-2-propanyl}carbamoyl)-2-oxiranecarboxylic acid] | 6.58 | < 300 | 260 |  |  | 
27 | CCn1nc(-c2ccccc2)nc2c(=O)n(C)c(=O)nc1-2 [Compound S9, 1-ethyl-6-methyl-3-phenylpyrimido[5,4-e][1,2,4]triazine-5,7-dione] |  |  |  |  | 7.15 | < 300
28 | COc1cc(O)c2c(=O)cc(-c3ccc(OC)c(-c4c(O)cc(O)c5c(=O)cc(-c6ccc(O)cc6)oc45)c3)oc2c1 [Compound N17, 5,7-dihydroxy-8-[5-(5-hydroxy-7-methoxy-4-oxochromen-2-yl)-2-methoxyphenyl]-2-(4-hydroxyphenyl)chromen-4-one] | 6.26 | 300 to 2500 | 550 |  |  | 
29 | CCC(C)[C@@H](NC(=O)OC(C)(C)C)c1nnc(S(=O)(=O)Cc2cccc(C)c2)o1 (stereo partly drawn) [Compound S23, tert-butyl N-[(1R)-2-methyl-1-[5-[(3-methylphenyl)methylsulfonyl]-1,3,4-oxadiazol-2-yl]butyl]carbamate] | 5.68 | 300 to 2500 |  |  |  | 
30 | Cn1c(=O)c2c(-c3ccccc3)n(-n3cnnc3)cc2n(C)c1=O [Compound S30, 1,3-dimethyl-5-phenyl-6-(1,2,4-triazol-4-yl)pyrrolo[3,4-d]pyrimidine-2,4-dione] | 5.93 | 300 to 2500 |  |  |  | 
31 | COc1ccc(S(=O)(=O)n2nc(OC(=O)c3ccc(C)cc3)cc2N)cc1 [Compound S8] | 4.91 | > 2500 |  |  |  | 
32 | NC(N)=NCCCCNC(=O)C(Cc1ccc(O)cc1)NC(=O)C1OC1C(=O)O (stereo not drawn) [Compound N16, 3-[[1-[4-(diaminomethylideneamino)butylamino]-3-(4-hydroxyphenyl)-1-oxopropan-2-yl]carbamoyl]oxirane-2-carboxylic acid] | 6.49 | 300 to 2500 | 320 |  |  | 
33 | COc1ccc(S(=O)(=O)n2nc(OC(=O)c3cccs3)cc2N)cc1 [Compound S31, [5-amino-1-(4-methoxyphenyl)sulfonylpyrazol-3-yl] thiophene-2-carboxylate] | 6.16 | 300 to 2500 |  |  |  | 
34 | CC(C)CCNC(=O)[C@H](CC(C)C)NC(=O)[C@H]1O[C@@H]1C(=O)O [Compound N14, (2S,3S)-3-[[(2S)-4-methyl-1-(3-methylbutylamino)-1-oxopentan-2-yl]carbamoyl]oxirane-2-carboxylic acid] |  |  |  |  | 8.47 | < 300
